Source: US6906092B2, “Method of inhibiting matrix metalloproteinases” (Warner-Lambert Company, priority 1996, dated 2005)
Like-named read-outs stand apart in the source and are kept apart here.

Experiments:
[1] = molecular target: T1, MMP01 (fibroblast collagenase) (Homo sapiens, UniProt P03956); assay: Thiopeptolide assay, MMP01; assay type: biochemical; conditions: thiopeptolide substrate
T1 construct: purchased Washington University School of Medicine, St. Louis, Mo
T1 sequence (P03956 100-469): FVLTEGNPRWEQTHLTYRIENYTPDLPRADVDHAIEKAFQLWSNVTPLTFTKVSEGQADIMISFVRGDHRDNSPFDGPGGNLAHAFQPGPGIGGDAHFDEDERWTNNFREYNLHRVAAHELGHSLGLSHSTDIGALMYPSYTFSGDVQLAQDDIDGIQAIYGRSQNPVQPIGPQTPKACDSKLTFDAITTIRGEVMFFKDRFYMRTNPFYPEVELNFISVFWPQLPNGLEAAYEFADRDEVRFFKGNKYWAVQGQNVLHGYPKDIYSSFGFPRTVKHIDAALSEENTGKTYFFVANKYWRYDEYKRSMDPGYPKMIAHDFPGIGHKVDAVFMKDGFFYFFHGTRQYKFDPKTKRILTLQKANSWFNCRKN
Protocol: (§1) IC50 values were determined using a thiopeptolide substrate, Ac-Pro-Leu-Gly-thioester-Leu-Leu-Gly-OEt (Ye Q.-Z., Johnson L. L., Hupe D. J., and Baragi V., “Purification and Characterization of the Human Stromelysin Catalytic Domain Expressed in Escherichia coli,” Biochemistry, 1992;31:11231-11235). MMP01, MMP07, MMP09, and MMP13 activity was assayed in a method similar to MMP02 and MMP03 (SCD and GCD). MMP01 and MMP09 can be obtained from Washington University School of Medicine, St. Louis, Mo. MMP07 can be obtained in accordance with the known procedure set forth by Ye Q-Z, Johnson L. L., and Baragi V., “Gene Syntheses and Expression in E. coli for PUMP, a Human Matrix Metalloproteinase” Biochem. and Biophys. Res. Comm., 1992;186:143-149. MMP13 can be obtained in accordance with the known procedure set forth by Freije J. M. P., et al., “Molecular Cloning and Expression of Collegenase-3, a Novel Human Matrix Metalloproteinase Produced by Breast Carcinomas” J. Bio. Chem., 1994;269:16766-16773.
(§2) Hydrolysis of the thiopeptolide substrate Ac-Pro-Leu-Gly-thioester-Leu-Leu-Gly-OEt (Bachem) is used as the primary screen to determine IC50 values for MMP inhibitors. A 100 μL reaction contains 1 mM 5,5′-dithiobis(2-nitrobenzoic acid) (DTNB), 100 μM substrate, 0.1% Brij, enzyme, and inhibitor in the appropriate reaction buffer. Activated full-length enzymes are assayed at 5 nM, Stromelysin Catalytic Domain (SCD) at 10 nM, and Gelatinase A Catalytic Domain (GaCD) at 1 nM. Inhibitors are screened from 100 μM to 1 nM. Full-length enzymes are assayed in 50 mM HEPES, 10 mM CaCl2, pH 7.0; SCD in 50 mM MES, 10 mM CaCl2, pH 6.0; and GaCD in 50 mM MOPS, 10 mM CaCl2, 10 μM ZnCl2, pH 7.0.

[2] = molecular target: MMP02 (GCD, recombinant gelatinase A catalytic domain) (Homo sapiens, UniProt P08253); assay: Thiopeptolide assay, gelatinase A catalytic domain (GCD); assay type: biochemical; conditions: thiopeptolide substrate
Protocol: as §1, §2

[3] = molecular target: T2, MMP03 (SCD, stromelysin-1 catalytic domain) (Homo sapiens, UniProt P08254); assay: Thiopeptolide assay, stromelysin-1 catalytic domain (SCD); assay type: biochemical; conditions: thiopeptolide substrate
T2 construct: SCD (stromelysin-1 catalytic domain); made in house; host or cells: Escherichia coli
Protocol: as §1, §2

gelatinase A = gelatinase A (Homo sapiens, UniProt P08253); assay: Gelatin assay (gelatinase natural substrate assay) (Gel); assay type: biochemical
Protocol: Gelatin Assay (Gelatinase Natural Substrate Assay) (Gel)
Rat tail Type I collagen (Sigma) is denatured by heating at 95° C. for 20 minutes to prepare the gelatin substrate. A 50 μL reaction contains 1.12 mg/mL substrate, enzyme, inhibitor, and 80 μg/mL soy bean trypsin inhibitor as an inert internal standard in 50 mM MOPS, 10 mM CaCl2, 10 μM ZnCl2, pH 7.0. Activated full-length gelatinase A is assayed at 1 nM and gelatinase A catalytic domain (GaCD) at 10 nM. Inhibitors are screened from 100 μM to 1 nM. The reactions are incubated at 37° C. for 30 minutes then stopped with 50 μL at 2× Tricine gel loading buffer (Novex). Reaction products are separated from undigested substrate by electrophoresis on Tricine-SDS 10-20% polyacrylamide gradient gels (Novex). Protein bands are stained with Coomassie Brilliant Blue R and quantified using a Bio Image densitometer (Millipore). IC50 values are calculated from the disappearance of substrate using the sum of the top three bands of each reaction after normalization with the internal standard.

[4] = MMP inhibitor bioassay (inhibitor plasma level after gavage); assay type: in vivo, rat; conditions: 50 mg/kg by gavage
Protocol: Animals are dosed by gavage with either vehicle or compound at 2, 10, or 50 mg/kg. Blood samples are collected from 3 to 4 animals from each dosing group at 1, 2, 4, 6, and 24 hour postdose, centrifuged, and the plasma immediately frozen at −20° C. Plasma protein is precipitated with an equal volume of acetonitrile and separated by centrifugation at room temperature. The supernate is evaporated to dryness and reconstituted to the original plasma volume with 50 mM Tris, pH 7.6. Ten-fold serial dilutions of the reconstituted plasma samples are prepared in 50 mM Tris, pH 7.6 for dose response assays using the appropriate thiopeptolide assay. […] All control samples are subjected to acetonitrile precipitation and analyzed with the thiopeptolide assay.

[5] = molecular target: T3, stromelysin catalytic domain (SCD) (Homo sapiens, UniProt P08254); assay: Soluble proteoglycan assay (stromelysin natural substrate assay) SCD (PG); assay type: biochemical; conditions: solubilized proteoglycan substrate
T3 construct: SCD (stromelysin-1 catalytic domain); made in house; host or cells: Escherichia coli
Protocol: Soluble Proteoglycan Assay (Stromelysin Natural Substrate Assay) SCD (PG)
Solubilized proteoglycan substrate is prepared from bovine cartilage powder (Sigma) using the method described by Nagase and Woessner in Anal. Biochem., 1980;107:385-392. A 100 μL reaction contains 10 μg/mL proteoglycan, enzyme, and inhibitor in 50 mM MES, 10 mM CaCl2, pH 6.0. Activated full-length stromelysin or stromelysin catalytic domain (SCD) is assayed at 100 nM. Inhibitors are screened from 100 μM to 1 nM. The reaction is incubated at 37° C. for 3 hours then stopped with the addition of 1,10-phenanthroline at a final concentration of 1 mM. Reaction products are separated from undigested substrate using ultrafree-MC polysulfone microcons with a 300,000 molecular weight cut-off membrane (Millipore) and quantified using a modified […] (DMB) assay described by Farndale, Sayers, and Barrett in Connective Tissue Research, 1982;9:247-248. Absorbance is measured at 518 nm using 32 μg/mL DMB in a 1 mL reaction. The standard curve is constructed from 0 to 100 μg shark cartilage chondroitin sulfate C (Sigma).

MMP07 (matrilysin) = molecular target: T4, MMP07 (matrilysin) (Homo sapiens, UniProt P09237); assay: Thiopeptolide assay, MMP07; assay type: biochemical; conditions: thiopeptolide substrate
T4 construct: made in house; host or cells: E. coli
T4 sequence (P09237 95-267): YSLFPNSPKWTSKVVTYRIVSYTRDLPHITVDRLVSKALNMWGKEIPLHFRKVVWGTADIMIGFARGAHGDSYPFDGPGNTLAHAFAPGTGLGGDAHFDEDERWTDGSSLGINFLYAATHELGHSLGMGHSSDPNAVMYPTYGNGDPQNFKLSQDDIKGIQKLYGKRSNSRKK
Protocol: as §1, §2

MMP13 (collagenase-3) = molecular target: T5, MMP13 (collagenase-3) (Homo sapiens, UniProt P45452); assay: Thiopeptolide assay, MMP13; assay type: biochemical; conditions: thiopeptolide substrate
T5 construct: made in house
Protocol: as §1, §2

[6] = catalytic domain, read-out: (GCD) MMP02 IC50
[7] = catalytic domain, read-out: (SCD) MMP03 IC50

T2 sequence (P08254 100-272 limits assumed): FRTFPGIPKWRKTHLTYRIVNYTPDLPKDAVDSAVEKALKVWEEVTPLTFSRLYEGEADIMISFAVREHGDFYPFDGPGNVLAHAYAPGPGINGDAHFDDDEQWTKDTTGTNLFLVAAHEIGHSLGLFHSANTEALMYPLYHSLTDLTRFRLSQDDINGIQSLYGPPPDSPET
MMP02 (GCD, recombinant gelatinase A catalytic domain), sequence (P08253 110-221 limits assumed): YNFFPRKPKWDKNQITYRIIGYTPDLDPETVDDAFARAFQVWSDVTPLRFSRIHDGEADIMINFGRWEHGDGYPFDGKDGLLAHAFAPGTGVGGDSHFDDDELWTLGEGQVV
MMP02 (GCD, recombinant gelatinase A catalytic domain), sequence (P08253 397-465 limits assumed): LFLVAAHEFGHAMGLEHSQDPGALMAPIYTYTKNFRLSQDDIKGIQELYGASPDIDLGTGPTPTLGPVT
T3 sequence (P08254 100-272 limits assumed): as the sequence (P08254 100-272 limits assumed) above

SMILES	IC50 [2, 6] [nM]	IC50 [3, 7] [nM]	further results
CC(C)C[C@H](NS(=O)(=O)c1ccc2oc3ccccc3c2c1)C(=O)O [Example 1, (L)-2-(Dibenzofuran-2-sulfonylamino)-4-methyl-pentanoic acid]	320		IC50 [1]: 66 µM
CCC(C)[C@H](NS(=O)(=O)c1ccc2oc3ccccc3c2c1)C(=O)O (stereo partly shown) [Example 2, (L)-2-(Dibenzofuran-2-sulfonylamino)-3-methyl-pentanoic acid]	2300	1500	
O=C(O)[C@H](Cc1ccccc1)NS(=O)(=O)c1ccc2oc3ccccc3c2c1 [Example 3, (L)-2-(Dibenzofuran-2-sulfonylamino)-3-phenyl-propionic acid]	900		melting point: 196 to 198 °C
C[C@H](NS(=O)(=O)c1ccc2oc3ccccc3c2c1)C(=O)O [Example 4, (L)-2-(Dibenzofuran-2-sulfonylamino)-propionic acid]	1700	5400	
CC(C)[C@H](NS(=O)(=O)c1ccc2oc3ccccc3c2c1)C(=O)O [Example 5, (L)-2-(Dibenzofuran-2-sulfonylamino)-3-methyl-butyric acid]	84		IC50 (gelatinase A): 580 nM; IC50 ([3]; Table 2, read-out: SCD (IC50)): 233 nM; melting point: 163 to 165 °C; Bioassay Peak (inhibitor plasma level) ([4]; peak): 82 µM; concentration at 24 h ([4]; rat, plasma, oral, 24 hours postdose): 180 nM; IC50 [5]: 8.9 µM; IC50 [1]: 19 µM; IC50 ([2]; Table 2, read-out: GCD (IC50)): 84 nM
O=C(O)CNS(=O)(=O)c1ccc2oc3ccccc3c2c1 [Example 6, (Dibenzofuran-2-sulfonylamino)-acetic acid]	730	4800	melting point: 208 to 210 °C
O=C(O)C[C@H](NS(=O)(=O)c1ccc2oc3ccccc3c2c1)C(=O)O [Example 7, (L)-2-(Dibenzofuran-2-sulfonylamino)-succinic acid]	1200	1000	melting point: 165 to 168 °C
O=C(O)[C@H](CSC(c1ccccc1)(c1ccccc1)c1ccccc1)NS(=O)(=O)c1ccc2oc3ccccc3c2c1 [Example 8, (L)-2-(Dibenzofuran-2-sulfonylamino)-3-tritylsulfanyl-propionic acid]	9400		
O=C(O)[C@H](CS)NS(=O)(=O)c1ccc2oc3ccccc3c2c1 [Example 9, (L)-2-(Dibenzofuran-2-sulfonylamino)-3-mercapto-propionic acid]	4500		
CCC(C)[C@H](NS(=O)(=O)c1ccc2oc3ccccc3c2c1)C(=O)NO (stereo partly shown) [Example 10, (L)-2-(Dibenzofuran-2-sulfonylamino)-3-methyl-pentanoic acid hydroxyamide]	35000		
CC(C)[C@H](NS(=O)(=O)c1ccc2c(c1)oc1ccccc12)C(=O)O [Example 11, (L)-2-(dibenzofuran-3-sulfonylamino)-3-methyl-butyric acid]	4.5	15	IC50 [1]: 1.8 µM; IC50 (MMP07 (matrilysin)): 5 µM; IC50 (MMP13 (collagenase-3)): 47 nM
CC(C)[C@H](NS(=O)(=O)c1ccc2c(c1)Cc1ccccc1-2)C(=O)O [Example 12, (L)-2-(9H-Fluorene-2-sulfonylamino)-3-methyl-butyric acid]	49	185	IC50 [1]: 32.3 µM; IC50 (MMP07 (matrilysin)): 10.8 µM; IC50 (MMP13 (collagenase-3)): 340 nM
CC(C)[C@H](NS(=O)(=O)c1ccc2sc3ccccc3c2c1)C(=O)O [Example 14, (L)-2-(Dibenzothiophene-2-sulfonylamino)-3-methyl-butyric acid]	610	690	IC50 (MMP07 (matrilysin)): 27 µM; IC50 (MMP13 (collagenase-3)): 2600 nM
CC(C)[C@H](NS(=O)(=O)c1ccc2oc3cc(Br)ccc3c2c1)C(=O)O [Example 16, (L)-2-(7-Bromo-dibenzofuran-2-sulfonylamino)-3-methyl-butyric acid]	470	750	
CC(C)[C@H](NS(=O)(=O)c1ccc2oc3cc(-c4ccccc4)ccc3c2c1)C(=O)O [Example 17, (L)-3-Methyl-2-(7-phenyl-dibenzofuran-2-sulfonylamino)-butyric acid]	360	62	IC50 (MMP07 (matrilysin)): 6 µM; IC50 (MMP13 (collagenase-3)): 690 nM
